pIC50: −log10 of the molar value.
Key:
[1] = Toxicity in wild type zebrafish embryos assessed as dead embryo at 15 ug/ml treated for 96 hrs post fertilization starting from 6 hrs post fertilization by inverted microscopic analysis relative to control; assay type: organism-based, Danio rerio; details: in vivo, read-out: Activity
[2] = system: Neutrophil; assay: Cytotoxicity against […] transgenic zebrafish 24 hrs post fertilization embryo neutrophils assessed as reduction in neutrophil at 25 ug/ml treated for 72 hrs post fertilization starting from 6 to 24 hrs post fertilization; assay type: cell-based, Danio rerio
[3] = system: Melanocyte; assay: Cytotoxicity against wild type zebrafish embryo melanocytes assessed as change in morphology at to 25 ug/ml treated for 72 hrs post fertilization starting from 6 to 24 hrs post fertilization; assay type: cell-based, Danio rerio
[4] = system: Melanocyte; assay: Cytotoxicity against wild type zebrafish embryo melanocytes assessed as size of melanocyte at to 25 ug/ml treated for 72 hrs post fertilization starting from 6 to 24 hrs post fertilization; assay type: cell-based, Danio rerio
[5] = system: Melanocyte; assay: Cytotoxicity against wild type zebrafish embryo melanocytes assessed as number of melanocyte at 25 ug/ml treated for 72 hrs post fertilization starting from 6 to 24 hrs post fertilization; assay type: cell-based, Danio rerio
[6] = species on record: Danio rerio; assay: Toxicity in wild type zebrafish embryos assessed as teratogenic embryo at 15 ug/ml treated for 96 hrs post fertilization starting from 6 hrs post fertilization by inverted microscopic analysis relative to control; assay type: organism-based; details: in vivo
[7] = species on record: Danio rerio; assay: Toxicity in wild type zebrafish embryos assessed as growth retardation at 50 ug/ml treated for 96 hrs post fertilization starting from 6 hrs post fertilization by inverted microscopic analysis relative to control; assay type: organism-based; details: in vivo
[8] = species on record: Danio rerio; assay: Toxicity in wild type zebrafish embryos assessed as growth retardation at 15 ug/ml treated for 96 hrs post fertilization starting from 6 hrs post fertilization by inverted microscopic analysis relative to control; assay type: organism-based; details: in vivo
[9] = species on record: Danio rerio; assay: Toxicity in wild type zebrafish embryos assessed as notochord at 50 ug/ml treated for 96 hrs post fertilization starting from 6 hrs post fertilization by inverted microscopic analysis relative to control; assay type: organism-based; details: in vivo
[10] = species on record: Danio rerio; assay: Toxicity in wild type zebrafish embryos assessed as notochord at 15 ug/ml treated for 96 hrs post fertilization starting from 6 hrs post fertilization by inverted microscopic analysis relative to control; assay type: organism-based; details: in vivo
[11] = species on record: Danio rerio; assay: Toxicity in wild type zebrafish embryos assessed as eyes at 50 ug/ml treated for 96 hrs post fertilization starting from 6 hrs post fertilization by inverted microscopic analysis relative to control; assay type: organism-based; details: in vivo
[12] = species on record: Danio rerio; assay: Toxicity in wild type zebrafish embryos assessed as eyes at 15 ug/ml treated for 96 hrs post fertilization starting from 6 hrs post fertilization by inverted microscopic analysis relative to control; assay type: organism-based; details: in vivo
[13] = species on record: Danio rerio; assay: Toxicity in wild type zebrafish embryos assessed as otoliths at 50 ug/ml treated for 96 hrs post fertilization starting from 6 hrs post fertilization by inverted microscopic analysis relative to control; assay type: organism-based; details: in vivo
[14] = species on record: Danio rerio; assay: Toxicity in wild type zebrafish embryos assessed as otoliths at 15 ug/ml treated for 96 hrs post fertilization starting from 6 hrs post fertilization by inverted microscopic analysis relative to control; assay type: organism-based; details: in vivo
[15] = system: Danio rerio; assay: Toxicity in wild type zebrafish embryos assessed as pericardial edema at 15 ug/ml treated for 96 hrs post fertilization starting from 6 hrs post fertilization by inverted microscopic analysis relative to control; assay type: organism-based; details: in vivo
[16] = system: Danio rerio; assay: Toxicity in wild type zebrafish embryos assessed as yolk edema at 50 ug/ml treated for 96 hrs post fertilization starting from 6 hrs post fertilization by inverted microscopic analysis relative to control; assay type: organism-based; details: in vivo
[17] = system: Danio rerio; assay: Toxicity in wild type zebrafish embryos assessed as yolk edema at 15 ug/ml treated for 96 hrs post fertilization starting from 6 hrs post fertilization by inverted microscopic analysis relative to control; assay type: organism-based; details: in vivo
[18] = species on record: Danio rerio; assay: Toxicity in wild type zebrafish embryos assessed as blood circulation at 50 ug/ml treated for 96 hrs post fertilization starting from 6 hrs post fertilization by inverted microscopic analysis relative to control; assay type: organism-based; details: in vivo
[19] = species on record: Danio rerio; assay: Toxicity in wild type zebrafish embryos assessed as blood circulation at 15 ug/ml treated for 96 hrs post fertilization starting from 6 hrs post fertilization by inverted microscopic analysis relative to control; assay type: organism-based; details: in vivo
[20] = species on record: Danio rerio; assay: Toxicity in wild type zebrafish embryos assessed as unhatched embryo at 15 ug/ml treated for 96 hrs post fertilization starting from 6 hrs post fertilization by inverted microscopic analysis relative to control; assay type: organism-based; details: in vivo
[21] = species on record: Danio rerio; assay: Toxicity in wild type zebrafish embryos assessed as head malformation at 20 ug/ml treated for 96 hrs post fertilization starting from 6 hrs post fertilization by inverted microscopic analysis relative to control; assay type: organism-based; details: in vivo
[22] = species on record: Danio rerio; assay: Toxicity in wild type zebrafish embryos assessed as head malformation at 15 ug/ml treated for 96 hrs post fertilization starting from 6 hrs post fertilization by inverted microscopic analysis relative to control; assay type: organism-based; details: in vivo
[23] = species on record: Danio rerio; assay: Toxicity in wild type zebrafish embryos assessed as skeletal deformities at 50 ug/ml treated for 96 hrs post fertilization starting from 6 hrs post fertilization by inverted microscopic analysis relative to control; assay type: organism-based; details: in vivo
[24] = molecular target: T1, Tyrosinase (Danio rerio) (UniProt A0A8M1PAD4); assay: Inhibition of zebrafish embryo tyrosinase assessed as residual activity at 15 ug/ml after 48 hrs relative to control
T1 sequence (whole entry): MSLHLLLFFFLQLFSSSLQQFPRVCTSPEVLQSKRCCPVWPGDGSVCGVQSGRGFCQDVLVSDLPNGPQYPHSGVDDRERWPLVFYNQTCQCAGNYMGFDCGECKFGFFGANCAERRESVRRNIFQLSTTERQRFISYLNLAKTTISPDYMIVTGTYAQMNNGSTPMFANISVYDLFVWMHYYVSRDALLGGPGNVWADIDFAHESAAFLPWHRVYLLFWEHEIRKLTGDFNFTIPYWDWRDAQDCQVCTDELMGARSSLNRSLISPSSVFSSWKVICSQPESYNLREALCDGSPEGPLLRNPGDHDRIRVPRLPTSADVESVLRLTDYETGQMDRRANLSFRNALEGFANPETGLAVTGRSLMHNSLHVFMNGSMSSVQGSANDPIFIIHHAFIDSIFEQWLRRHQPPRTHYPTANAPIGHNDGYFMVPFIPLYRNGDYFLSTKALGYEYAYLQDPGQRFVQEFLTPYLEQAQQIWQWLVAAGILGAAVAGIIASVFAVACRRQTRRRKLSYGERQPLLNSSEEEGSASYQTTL

[25] = molecular target: T1, Tyrosinase (Danio rerio); assay: Inhibition of zebrafish embryo tyrosinase assessed as residual activity at 10 ug/ml after 48 hrs relative to control
[26] = molecular target: T1, Tyrosinase (Danio rerio); assay: Inhibition of zebrafish embryo tyrosinase assessed as residual activity at 5 ug/ml after 48 hrs relative to control
[27] = molecular target: T2, Tyrosinase (Danio rerio, UniProt A0A8M1PAD4); assay: Inhibition of zebrafish embryo tyrosinase assessed as melanin production after 48 hrs
T2 sequence (A0A8M1PAD4 whole entry): T1 sequence (whole entry)

[28] = molecular target: T2, Tyrosinase; assay: Inhibition of zebrafish embryo tyrosinase assessed as residual activity after 48 hrs
[29] = molecular target: T1, Tyrosinase (Danio rerio); assay: Potency index, ratio of kojic acid IC50 to compound IC50 for zebrafish embryo tyrosinase assessed as melanin production
[30] = molecular target: T1, Tyrosinase (Danio rerio); assay: Potency index, ratio of kojic acid IC50 to compound IC50 for zebrafish embryo tyrosinase assessed as residual activity
[31] = molecular target: T1, Tyrosinase (Danio rerio); assay: Inhibition of zebrafish embryo tyrosinase assessed as melanin production at 20 ug/ml after 48 hrs relative to control; values are per cent of control
[32] = molecular target: T1, Tyrosinase (Danio rerio); assay: Inhibition of zebrafish embryo tyrosinase assessed as melanin production at 10 ug/ml after 48 hrs relative to control; values are per cent of control

Row | Compound | mortality at 15 ug/ml [1] | Activity [2] | Activity [3] | Activity [4] | Activity [5] | Activity [6] | Activity [7] | Activity [8] | Activity [9] | Activity [10] | Activity [11] | Activity [12] | Activity [13] | Activity [14] | Activity [15] | Activity [16] | Activity [17] | Activity [18] | Activity [19] | Activity [20] | further results
1 | O=c1cc(-c2ccccc2)c2ccc(O)cc2o1 | 0% | Non-Toxic | Non-Toxic | Non-Toxic | Non-Toxic | 0% | 0% | 0% | 0% | 0% | 0% | 0% | 0% | 0% | 0% | 0% | 0% | 0% | 0% | 0% | Activity [21]: 0%; Activity [22]: 0%; Activity [23]: 0%; Activity [24]: 92%; Activity [25]: 97%; Activity [26]: 99%; pIC50 [27]: 3.99; pIC50 [28]: 3.69; Ratio IC50 [29]: 62; Ratio IC50 [30]: 41; melanin content % of control [31]: 61%; melanin content % of control [32]: 91%
2 | O=c1cc(-c2ccccc2)c2c(O)cc(O)cc2o1 | 0% | Non-Toxic | Non-Toxic | Non-Toxic | Non-Toxic | 0% | 0% | 0% | 0% | 0% | 0% | 0% | 0% | 0% | 0% | 0% | 0% | 0% | 0% | 0% | Activity [21]: 0%; Activity [22]: 0%; Activity [23]: 25%; Activity [24]: 76%; Activity [25]: 82%; Activity [26]: 95%; pIC50 [27]: 4.38; pIC50 [28]: 4.04; Ratio IC50 [29]: 147; Ratio IC50 [30]: 86; melanin content % of control [31]: 37%; melanin content % of control [32]: 48%

Reference: ChEMBL document CHEMBL4177616, “Potent anti-melanogenic activity and favorable toxicity profile of selected 4-phenyl hydroxycoumarins in the zebrafish model and the computational molecular modeling studies” (Bioorg Med Chem, 2017)
